Tested on: subjects with moderate-to-severe plaque psoriasis
Experiment: IGA score, Example 1
Assay type: in vivo, human
Method: The Investigator's Global Assessment (IGA) documents the investigator's assessment of the participant's psoriasis at a given time point. Overall lesions are graded for induration, erythema, and scaling. The participant's psoriasis is assessed as cleared (0), minimal (1), mild (2), moderate (3), or severe (4).
This was a randomized, double-blind, placebo-controlled, dose-ranging, parallel group, multicenter, interventional study in subjects with moderate-to-severe plaque psoriasis. A target of 240 subjects were enrolled in this study with 40 subjects planned per intervention group.
Clinician-reported outcomes including Psoriasis Area and Severity Index (PASI), Body Surface Area (BSA), Investigator's Global Assessment (IGA), Nail Psoriasis Area and Severity Index (NAPSI), Fingernail Physician's Global Assessment (f-PGA), Static Physician's Global Assessment of Genitalia (s-PGA-G), Physician's Global Assessment of Hands and/or Feet (hf-PGA), and Scalp Specific Investigator Global Assessment (ss-IGA) were obtained at Week 0, 8, and 16. PASI and IGA were also obtained at Weeks 1, 2, 4, and 12, and at Week 20, four weeks after the administration of the tablets has stopped.

[1] = 100 mg BID, Week 16, trough plasma conc Q2 to <Q3
[2] = 100 mg BID, Week 16, trough plasma conc ≥Q3
[3] = 100 mg QD, Week 16, peak plasma conc. <Q1, N=2
[4] = 100 mg QD, Week 16, peak plasma conc. Q1 to <Q2, N=2
[5] = 100 mg QD, Week 16, peak plasma conc. Q2 to <Q3, N=2
[6] = 100 mg QD, Week 16, peak plasma conc. ≥Q3, N=2
[7] = 100 mg QD, Week 16, trough plasma conc <Q1
[8] = 100 mg QD, Week 16, trough plasma conc Q1 to <Q2
[9] = 100 mg QD, Week 16, trough plasma conc Q2 to <Q3
[10] = 100 mg QD, Week 16, trough plasma conc ≥Q3
[11] = Combined doses, Week 16, peak plasma conc. <Q1, N=10
[12] = Combined doses, Week 16, peak plasma conc. Q1 to <Q2, N=11
[13] = Combined doses, Week 16, peak plasma conc. Q2 to <Q3, N=10
[14] = Combined doses, Week 16, peak plasma conc. ≥Q3, N=11
[15] = Combined doses, Week 16, trough plasma conc <Q1
[16] = Combined doses, Week 16, trough plasma conc Q1 to <Q2
[17] = Combined doses, Week 16, trough plasma conc Q2 to <Q3
[18] = Combined doses, Week 16, trough plasma conc ≥Q3
[19] = Week 16, 25 mg BID, intermediate plasma concentration quartile <Q1, N=1
[20] = Week 16, 25 mg BID, intermediate plasma concentration quartile Q1 to <Q2, N=1
[21] = Week 16, 25 mg BID, intermediate plasma concentration quartile Q2 to <Q3, N=1
[22] = Week 16, 25 mg BID, intermediate plasma concentration quartile ≥Q3, N=1
[23] = Week 16, 25 mg QD, intermediate plasma concentration quartile Q1 to <Q2, N=1
[24] = Week 16, 25 mg QD, intermediate plasma concentration quartile Q2 to <Q3, N=1
[25] = Week 16, 25 mg QD, intermediate plasma concentration quartile ≥Q3, N=1
[26] = Week 16, 50 mg QD, intermediate plasma concentration quartile <Q1, N=1
[27] = Week 16, 50 mg QD, intermediate plasma concentration quartile Q1 to <Q2, N=1
[28] = Week 16, 50 mg QD, intermediate plasma concentration quartile Q2 to <Q3, N=1
[29] = Week 16, 50 mg QD, intermediate plasma concentration quartile ≥Q3, N=2
[30] = Week 16, 100 mg BID, intermediate plasma concentration quartile <Q1, N=1
[31] = Week 16, 100 mg BID, intermediate plasma concentration quartile Q1 to <Q2, N=1
[32] = Week 16, 100 mg BID, intermediate plasma concentration quartile Q2 to <Q3, N=1
[33] = Week 16, 100 mg BID, intermediate plasma concentration quartile ≥Q3, N=2
[34] = Week 16, 100 mg QD, intermediate plasma concentration quartile <Q1, N=1
[35] = Week 16, 100 mg QD, intermediate plasma concentration quartile Q1 to <Q2, N=1
[36] = Week 16, 100 mg QD, intermediate plasma concentration quartile Q2 to <Q3, N=1
[37] = Week 16, 100 mg QD, intermediate plasma concentration quartile ≥Q3, N=1
[38] = Week 16, Combined regimens, intermediate plasma concentration quartile <Q1, N=5
[39] = Week 16, Combined regimens, intermediate plasma concentration quartile Q1 to <Q2, N=5
[40] = Week 16, Combined regimens, intermediate plasma concentration quartile Q2 to <Q3, N=5
[41] = Week 16, Combined regimens, intermediate plasma concentration quartile ≥Q3, N=6

SMILES: CC(=O)NCCCC[C@@H]1NC(=O)[C@H](Cc2c[nH]c3c(C)cccc23)NC(=O)[C@H]([C@@H](C)O)NC(=O)[C@H](CC(N)=O)NC(=O)[C@@H](NC(C)=O)C(C)(C)SSC(C)(C)[C@@H](C(=O)N[C@@H](Cc2ccc(OCCN)cc2)C(=O)N[C@@H](Cc2ccc3ccccc3c2)C(=O)NC2(C(=O)N[C@@H](CCC(=O)O)C(=O)N[C@@H](CC(N)=O)C(=O)N[C@@H](Cc3cccnc3)C(=O)N(C)CC(N)=O)CCOCC2)NC1=O [IL-23 receptor antagonist peptide, Ac-[Pen]*-N-T-[W(7-Me)]-[Lys(Ac)]-[Pen]*-Phe[4-(2-aminoethoxy)]-[2-Nal]-[THP]-E-N-[3-Pal]-Sarc-NH2 (*[Pen]-[Pen]* formdisulfidebond)]
- IGA Score = 0 or 1, subjects (100 mg BID, Week 16, trough plasma conc Q1 to <Q2): 4 (80.0%)
- IGA Score = 0, subjects [1]: 2 (40.0%)
- IGA Score = 0 or 1, subjects [1]: 3 (60.0%)
- IGA Score = 0, subjects [2]: 3 (60.0%)
- IGA Score = 0 or 1, subjects [2]: 4 (80.0%)
- IGA 0 or 1 treatment difference vs placebo (100 mg QD, Week 16): 51.2% (34.0%,
- IGA 0 treatment difference vs placebo (100 mg QD, Week 16): 27.9% (14.6%,
- Subjects achieving IGA Score = 0 (100 mg QD, Week 16): 12 (27.9%)
- Subjects achieving IGA Score = 0 or 1 (100 mg QD, Week 16): 27 (62.8%)
- IGA score 0, % (100 mg QD, Week 16, N=43): 27.9%
- IGA score 0/1, % (100 mg QD, Week 16, N=43): 62.8%
- IGA Score = 0, % subjects [3]: (50.0%)
- IGA Score = 0, n subjects [3]: 1
- IGA Score = 0 or 1, % subjects [3]: (50.0%)
- IGA Score = 0 or 1, n subjects [3]: 1
- IGA Score = 0, % subjects [4]: (50.0%)
- IGA Score = 0, n subjects [4]: 1
- IGA Score = 0 or 1, % subjects [4]: (100.0%)
- IGA Score = 0 or 1, n subjects [4]: 2
- IGA Score = 0, % subjects [5]: (50.0%)
- IGA Score = 0, n subjects [5]: 1
- IGA Score = 0 or 1, % subjects [5]: (50.0%)
- IGA Score = 0 or 1, n subjects [5]: 1
- IGA Score = 0, n subjects [6]: 0
- IGA Score = 0 or 1, % subjects [6]: (50.0%)
- IGA Score = 0 or 1, n subjects [6]: 1
- IGA Score = 0, subjects [7]: 3 (60.0%)
- IGA Score = 0 or 1, subjects [7]: 3 (60.0%)
- IGA Score = 0, subjects [8]: 0
- IGA Score = 0 or 1, subjects [8]: 3 (60.0%)
- IGA Score = 0, subjects [9]: 1 (20.0%)
- IGA Score = 0 or 1, subjects [9]: 3 (60.0%)
- IGA Score = 0, subjects [10]: 1 (20.0%)
- IGA Score = 0 or 1, subjects [10]: 3 (60.0%)
- IGA Score = 0, % subjects [11]: (10.0%)
- IGA Score = 0, n subjects [11]: 1
- IGA Score = 0 or 1, % subjects [11]: (30.0%)
- IGA Score = 0 or 1, n subjects [11]: 3
- IGA Score = 0, % subjects [12]: (36.4%)
- IGA Score = 0, n subjects [12]: 4
- IGA Score = 0 or 1, % subjects [12]: (72.7%)
- IGA Score = 0 or 1, n subjects [12]: 8
- IGA Score = 0, % subjects [13]: (30.0%)
- IGA Score = 0, n subjects [13]: 3
- IGA Score = 0 or 1, % subjects [13]: (80.0%)
- IGA Score = 0 or 1, n subjects [13]: 8
- IGA Score = 0, % subjects [14]: (45.5%)
- IGA Score = 0, n subjects [14]: 5
- IGA Score = 0 or 1, % subjects [14]: (63.6%)
- IGA Score = 0 or 1, n subjects [14]: 7
- IGA Score = 0, subjects [15]: 10 (38.5%)
- IGA Score = 0 or 1, subjects [15]: 14 (53.8%)
- IGA Score = 0, subjects [16]: 5 (19.2%)
- IGA Score = 0 or 1, subjects [16]: 12 (46.2%)
- IGA Score = 0, subjects [17]: 5 (19.2%)
- IGA Score = 0 or 1, subjects [17]: 15 (57.7%)
- IGA Score = 0, subjects [18]: 10 (37.0%)
- IGA Score = 0 or 1, subjects [18]: 21 (77.8%)
- IGA Score = 0, subjects n (%) [19]: 0
- IGA Score = 0 or 1, subjects n (%) [19]: 0
- IGA Score = 0, subjects n (%) [20]: 0
- IGA Score = 0 or 1, subjects n (%) [20]: 1 (100.0%)
- IGA Score = 0, subjects n (%) [21]: 0
- IGA Score = 0 or 1, subjects n (%) [21]: 0
- IGA Score = 0, subjects n (%) [22]: 0
- IGA Score = 0 or 1, subjects n (%) [22]: 1 (100.0%)
- IGA Score = 0, subjects n (%) [23]: 0
- IGA Score = 0 or 1, subjects n (%) [23]: 0
- IGA Score = 0, subjects n (%) [24]: 1 (100.0%)
- IGA Score = 0 or 1, subjects n (%) [24]: 1 (100.0%)
- IGA Score = 0, subjects n (%) [25]: 0
- IGA Score = 0 or 1, subjects n (%) [25]: 0
- IGA Score = 0, subjects n (%) [26]: 0
- IGA Score = 0 or 1, subjects n (%) [26]: 0
- IGA Score = 0, subjects n (%) [27]: 1 (100.0%)
- IGA Score = 0 or 1, subjects n (%) [27]: 1 (100.0%)
- IGA Score = 0, subjects n (%) [28]: 1 (100.0%)
- IGA Score = 0 or 1, subjects n (%) [28]: 1 (100.0%)
- IGA Score = 0, subjects n (%) [29]: 0
- IGA Score = 0 or 1, subjects n (%) [29]: 1 (50.0%)
- IGA Score = 0, subjects n (%) [30]: 1 (100.0%)
- IGA Score = 0 or 1, subjects n (%) [30]: 1 (100.0%)
- IGA Score = 0, subjects n (%) [31]: 1 (100.0%)
- IGA Score = 0 or 1, subjects n (%) [31]: 1 (100.0%)
- IGA Score = 0, subjects n (%) [32]: 0
- IGA Score = 0 or 1, subjects n (%) [32]: 0
- IGA Score = 0, subjects n (%) [33]: 2 (100.0%)
- IGA Score = 0 or 1, subjects n (%) [33]: 2 (100.0%)
- IGA Score = 0, subjects n (%) [34]: 1 (100.0%)
- IGA Score = 0 or 1, subjects n (%) [34]: 1 (100.0%)
- IGA Score = 0, subjects n (%) [35]: 1 (100.0%)
- IGA Score = 0 or 1, subjects n (%) [35]: 1 (100.0%)
- IGA Score = 0, subjects n (%) [36]: 0
- IGA Score = 0 or 1, subjects n (%) [36]: 1 (100.0%)
- IGA Score = 0, subjects n (%) [37]: 0
- IGA Score = 0 or 1, subjects n (%) [37]: 1 (100.0%)
- IGA Score = 0, subjects n (%) [38]: 3 (60.0%)
- IGA Score = 0 or 1, subjects n (%) [38]: 3 (60.0%)
- IGA Score = 0, subjects n (%) [39]: 2 (40.0%)
- IGA Score = 0 or 1, subjects n (%) [39]: 3 (60.0%)
- IGA Score = 0, subjects n (%) [40]: 1 (20.0%)
- IGA Score = 0 or 1, subjects n (%) [40]: 3 (60.0%)
- IGA Score = 0, subjects n (%) [41]: 3 (50.0%)
- IGA Score = 0 or 1, subjects n (%) [41]: 5 (83.3%)
